pIC50: −log10 of the molar value. Counter-ions that a name gives are not always drawn. Like-named read-outs stand apart in the source and are kept apart here.
Tests used:
[1] = tested on: MCF-7 human mammary adenocarcinoma; experiment: In vitro inhibition rate to tumor cells (MTT), MCF-7; format: cell-based; settings: for inhibition at 50 µg/mL: Homo sapiens, MCF7, 50 μg/ml, read-out: inhibition rate, Results (%) MCF-7; for inhibition rate, Results (%) MCF-7: 50 μg/ml, hydrochloride
[2] = tested on: LLC mouse Lewis lung carcinoma; experiment: In vitro inhibition rate to tumor cells (MTT), LLC; format: cell-based; settings: 50 μg/ml; for inhibition at 50 µg/mL: Mus musculus, Lewis lung carcinoma; for inhibition rate, Results (%) LLC: hydrochloride
[3] = tested on: U-937 human histocytic lymphoma; experiment: In vitro inhibition rate to tumor cells (MTT), U-937; format: cell-based; settings: for inhibition at 50 µg/mL: Homo sapiens, U-937, 50 μg/ml, read-out: inhibition rate, Results (%) U-937; for inhibition rate, Results (%) U-937: 50 μg/ml, hydrochloride
[4] = tested on: Hela human cervical carcinoma; experiment: In vitro inhibition rate to tumor cells (MTT), Hela; format: cell-based; settings: 50 μg/ml; for inhibition at 50 µg/mL: Homo sapiens, HeLa, read-out: inhibition rate, Results (%) Hela; for inhibition rate, Results (%) Hela: hydrochloride
[5] = target: T1, HIV-1 proteinase (HIV-1 PR) (Human immunodeficiency virus type 1 group M subtype B, UniProt P04585); experiment: Screening for in vitro activity against HIV-1 proteinase; format: biochemical; settings: for Inhibition rate: hydrochloride
T1 construct: HIV-1 proteinase digests the fluorescent-labeled substrate; purchased
Method in brief: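 Recombinant HIV-1 PR cleaves a fluorescent-labeled substrate in reaction buffer. Samples were dissolved in DMSO and serially diluted 5-fold in water (five dilutions), then added before the enzyme. Fluorescence of the product was read after incubation; indinavir was the positive control.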

[6] = tested on: Bel-7402 human hepatic carcinoma; experiment: In vitro inhibition rate to tumor cells (MTT), Bel-7402; format: cell-based; settings: for inhibition at 50 µg/mL: Homo sapiens, Bel-7402, 50 μg/ml, read-out: inhibition rate, Results (%) Bel-7402; for inhibition rate, Results (%) Bel-7402: 50 μg/ml, hydrochloride
[7] = target: T2, HIV-1 integrase (HIV-1 IN) (Human immunodeficiency virus type 1 group M subtype B, UniProt P04585); experiment: Screening for the activity against HIV-1 integrase; format: biochemical
T2 construct: a purified HIV-1 integrase was added into each well; purchased
Protocol: Principle of the test: A synthetic oligonucleotide of 30 nt was used as the donor substrate. A synthetic oligonucleotide of 20 nt was used as the target substrate. A 96-well plate was covered by the donor substrate, and a purified HIV-1 integrase was added into each well. ELISA was performed to measure the product of the target DNA chain transfer. A biotin-labeled alkali phosphatase was used to visual the system. OD value was measured by an Enzyme-linked Detector. Add a sample into the reaction system for screening the inhibitor of the enzyme.
1. HIV-1 IN: commercially available.
2. Treatment of the samples: Before use, the sample was dissolved in water or DMSO at a suitable concentration, then serially diluted (5×), four serial dilutions per sample. The stock solutions of two samples were 100-fold diluted with DMSO, then 5-fold diluted, four serial dilutions per sample. Positive control: S-y, provided by Shanghai Organic Chemistry Institute.
3. The donor substrate and target substrate: synthesized by Shanghai Biological Engineering Company (Shanghai Shenggong).
4. Methods: The diluted sample was added into a 96-well plate covered by the donor substrate, and then added into the reaction buffer containing the genetic engineered target enzyme and biotin-target substrate, incubated in the optimal reaction conditions. A biotin-labeled alkali phosphatase was used to visual the system to determine the absorbance at 450 nm (OD450).

[8] = tested on: SMMC-7721 human hepatic carcinoma; experiment: In vitro inhibition rate to tumor cells (MTT), SMMC-7721; format: cell-based; settings: for inhibition at 50 µg/mL: Homo sapiens, SMMC-7721, 50 μg/ml, read-out: inhibition rate, Results (%) SMMC-7721; for inhibition rate, Results (%) SMMC-7721: 50 μg/ml, hydrochloride
[9] = tested on: A-549 human lung adenocarcinoma; experiment: In vitro inhibition rate to tumor cells (MTT), A-549; format: cell-based; settings: for inhibition at 50 µg/mL: Homo sapiens, A549, 50 μg/ml, read-out: inhibition rate, Results (%) A-549; for inhibition rate, Results (%) A-549: 50 μg/ml, hydrochloride
293 cells = experiment: Cell status of 293 cells treated with sample alone (herpes virus screening); settings: 200 μg/ml, 24 hrs
[10] = tested on: U-937 human histocytic lymphoma; experiment: In vitro anti-tumor IC50 (MTT), U-937; format: cell-based; settings: Table 4; hydrochloride
Protocol: (§1) (1) Single cell suspension was seeded into 96-well plates (the cells was diluted in the PRMI-1640 minimum medium to 3×10^4 cells/ml, […] diluted cells/well). […] The experiments were performed in quadruplicate.
(§2) (2) The medium was removed. Solutions of the anti-tumor agents (50 compounds) were prepared in a freshly prepared medium at serial concentrations. […] of the solution was added into each well. Incubation was continued for 48 hours.
(§3) (3) 20 ug of 2 mg/ml MTT was added into each well, and incubated for 4 hours.
(§4) (4) The medium was removed from the well. The microplates were swiftly turned down to throw-off the medium. […] of DMSO was added into each well, and vortexed at room temperature for 10 minutes.
(§5) (5) OD value (λ=570 nm) was measured with an Enzyme-Linked Detector.
(§6) (6) The graph of cell vitality was plotted, and IC50 was calculated.

[11] = tested on: HL-60 human promyelocytic leukemia; experiment: In vitro anti-tumor IC50 (MTT), HL-60; format: cell-based; settings: Table 4; hydrochloride
Protocol: as §1, §2, §3, §4, §5, §6

[12] = tested on: Hela human cervical carcinoma; experiment: In vitro anti-tumor IC50 (MTT), Hela; format: cell-based; settings: Table 4; hydrochloride

Structure (SMILES): C=C1CC2(OC(=O)C(C)C)OC3(CC2C(C)C)C(C)CCC13 (centres unmarked) [Compound 3, Curcumol isobutyrate]
- inhibition at 50 µg/mL ([1]; Table 1): 32.1%
- inhibition at 50 µg/mL ([1]; Table 2 (repeated screening)): 22.4%
- inhibition at 50 µg/mL ([2]; Table 1): 6.89%
- inhibition at 50 µg/mL ([2]; Table 2 (repeated screening)): 0.02%
- inhibition at 50 µg/mL ([3]; Table 1): 91.7%
- inhibition at 50 µg/mL ([3]; Table 2 (repeated screening)): 93%
- inhibition at 50 µg/mL ([4]; Table 1): 69.2%
- inhibition at 50 µg/mL ([4]; Table 2 (repeated screening)): 70.2%
- inhibition at 0.08 µg/mL ([5]; 0.08 μg/ml, read-out: Inhibition rate): 4.98%
- inhibition at 0.4 µg/mL ([5]; 0.40 μg/ml, read-out: Inhibition rate): 13.5%
- inhibition at 2 µg/mL ([5]; 2.0 μg/ml, read-out: Inhibition rate): 9.64%
- inhibition at 10 µg/mL ([5]; 10 μg/ml, read-out: Inhibition rate): 12.1%
- pIC50 ([5]; IC50, five 5× serial dilutions from 50 μg/ml): < 3.79
- inhibition at 50 µg/mL ([5]; read-out: Inhibition rate, 50 μg/ml): 5.55%
- inhibition at 50 µg/mL ([6]; Table 1): 14.4%
- inhibition at 50 µg/mL ([6]; Table 2 (repeated screening)): 11%
- pIC50 [7]: 3.93
- inhibition at 50 µg/mL ([8]; Table 1): 8.02%
- inhibition at 50 µg/mL ([8]; Table 2 (repeated screening)): 8.96%
- inhibition at 50 µg/mL ([9]; Table 1): 7.76%
- inhibition at 50 µg/mL ([9]; Table 2 (repeated screening)): 10.3%
- Cytopathy and cell status, Sample (293 cells): Normal

Structure (SMILES): CC(C)C1CC23OC1(O)C/C(=C\Nc1ccc(O)cc1)C2CCC3C (centres unmarked) [Compound 6, Curcumol p-hydroxy aniline hydrochloride]
- inhibition rate, Results (%) MCF-7 ([1]; Table 1): 91.89%
- inhibition rate, Results (%) MCF-7 ([1]; Table 2 (repeated screening)): 91.89%
- inhibition at 50 µg/mL ([1]; Table 3 (repeated screening)): 94.1%
- IC50 (ug/ml) against tumor cell lines, U-937 [10]: 0.56 µg/mL
- inhibition rate, Results (%) LLC ([2]; Table 1): 88.23%
- inhibition rate, Results (%) LLC ([2]; Table 2 (repeated screening)): 87.02%
- inhibition at 50 µg/mL ([2]; Table 3 (repeated screening)): 85%
- IC50 (ug/ml) against tumor cell lines, HL-60 [11]: 0.51 µg/mL
- inhibition rate, Results (%) U-937 ([3]; Table 1): 90.92%
- inhibition rate, Results (%) U-937 ([3]; Table 2 (repeated screening)): 94.12%
- inhibition at 50 µg/mL ([3]; Table 3 (repeated screening)): 94.1%
- inhibition rate, Results (%) Hela ([4]; Table 1): 95.26%
- inhibition rate, Results (%) Hela ([4]; Table 2 (repeated screening)): 95.26%
- inhibition at 50 µg/mL ([4]; Table 3 (repeated screening)): 92.3%
- Inhibition rate ([5]; 0.08 μg/ml): 0.89
- Inhibition rate ([5]; 0.40 μg/ml): 1.7
- Inhibition rate ([5]; 2.0 μg/ml): 2.99
- Inhibition rate ([5]; 10 μg/ml): 13.15
- Inhibition rate ([5]; 50 μg/ml): 7.07
- pIC50 ([5]; five 5× serial dilutions from 50 μg/ml): < 3.84
- inhibition rate, Results (%) Bel-7402 ([6]; Table 1): 81.84%
- inhibition rate, Results (%) Bel-7402 ([6]; Table 2 (repeated screening)): 81.84%
- inhibition at 50 µg/mL ([6]; Table 3 (repeated screening)): 83.6%
- IC50 (ug/ml) against tumor cell lines, Hela [12]: 0.35 µg/mL
- inhibition rate, Results (%) SMMC-7721 ([8]; Table 1): 86.12%
- inhibition rate, Results (%) SMMC-7721 ([8]; Table 2 (repeated screening)): 86.12%
- inhibition at 50 µg/mL ([8]; Table 3 (repeated screening)): 87.1%
- inhibition rate, Results (%) A-549 ([9]; Table 1): 91.84%
- inhibition rate, Results (%) A-549 ([9]; Table 2 (repeated screening)): 92.84%
- inhibition at 50 µg/mL ([9]; Table 3 (repeated screening)): 90.1%
- Cytopathy and cell status, Sample (293 cells): Good
